In patent EP3466419B1, “USE OF TRIMETHOXYBENZYL ACETYLSINAPATE, ADVANTAGEOUSLY IN COMBINATION WITH AT LEAST ONE SUNSCREEN, FOR PROTECTING THE SKIN” (Thorel, Jean-Noël, priority 2017, dated 2019) one finds activity data, which are given here for two compounds.

For the assay, the system named is Nrf2. Briefly: Induction of the Nrf2 pathway, luciferase reporter assay in the « ARE Reporter-HepG2 » cell model. It is filed as cell-based. As to conditions: 18 hours of contact, relative to solvent control cells. As to the method: Le but de l'étude est d'évaluer l'induction de la voie Nrf2 dans le modèle cellulaire « ARE Reporter-HepG2 » (HepG2; BPS BIOSCIENCE) [Lee et al., (2004), Dinkova-Kostova et al., (2002)] par l'actif visé dans l'invention.
En parallèle du test de cytotoxicité, des cellules HepG2 ont été également ensemencées dans des puits de plaques à 96 puits (plaques opaques avec fond transparent) à raison de 40 000 cellules/puits (volume de 100 µL), en milieu M1.
Seuls les 60 puits centraux des plaques ont été utilisés, les puits restants n'ont reçu que du PBS.
Après adhésion des cellules, le milieu de culture M1 a été enlevé. Les cellules ont été traitées (volume final: 50 µL) avec le produit à l'essai, dilué dans le milieu de culture M1 (n=3/concentration à tester, 1 concentration/produit), pendant 18 heures. […]
Les puits « sans cellules » ont servi à la détection de la luminescence liée au bruit de fond du milieu. Les puits « cellules témoins » ont servi à la détection de la luminescence intrinsèque du système d'essais (sans activation). […]
A la fin de la période d'incubation (18 heures à 37°C, 5 % de CO2), les cellules ont été lysées par ajout de 100 µL du réactif « One-step luciferase assay system ». La luminescence émise par la luciférase néo-synthétisée a été évaluée avec un luminomètre Optima. […]
For orientation: Reporter assays use an easily measured gene product as a stand-in for the process of interest.

SMILES strings stand for the structures.

For the compound `COc1cc(COC(=O)/C=C/c2cc(OC)c(OC(C)=O)c(OC)c2)cc(OC)c1OC` [trimethoxybenzyl acetylsinapate, 3-[4-(acetyloxy)-3,5-dimethoxyphenyl] -(3,4,5-trimethoxyphenyl)methyl ester-(2E)-Propenoic acid], the activity at 0.00125 % (dose 0,00125 %, read-out: taux d'activation de Nrf2) worked out at 164%. In the case of `C[S+]([O-])CCCCN=C=S` (centres unmarked) [sulforaphane], the activity at 3 µM (Homo sapiens, HepG2, 3 µM, read-out: luminescence émise par les cellules HepG2 traitées, en comparaison au témoin solvant (activation de Nrf2)) stood at 438%.
